Assay results published in US20260007684A1, “AMIDE DERIVATIVES FOR INHIBITING NLRP3 AND USES THEREOF” (Ventus Therapeutics U.S., Inc., priority 2023, published 2026).

What follows are molecules tested against human NLRP3 (Homo sapiens (Human), UniProt Q96P20) (assay: Scintillation Proximity (SPA) NLRP3 Assay: displacement of 3H-MCC950). Details: SPA IC50, displacement of 3H-MCC950.
Assay type: binding

Chain of human NLRP3 (Q96P20 whole entry): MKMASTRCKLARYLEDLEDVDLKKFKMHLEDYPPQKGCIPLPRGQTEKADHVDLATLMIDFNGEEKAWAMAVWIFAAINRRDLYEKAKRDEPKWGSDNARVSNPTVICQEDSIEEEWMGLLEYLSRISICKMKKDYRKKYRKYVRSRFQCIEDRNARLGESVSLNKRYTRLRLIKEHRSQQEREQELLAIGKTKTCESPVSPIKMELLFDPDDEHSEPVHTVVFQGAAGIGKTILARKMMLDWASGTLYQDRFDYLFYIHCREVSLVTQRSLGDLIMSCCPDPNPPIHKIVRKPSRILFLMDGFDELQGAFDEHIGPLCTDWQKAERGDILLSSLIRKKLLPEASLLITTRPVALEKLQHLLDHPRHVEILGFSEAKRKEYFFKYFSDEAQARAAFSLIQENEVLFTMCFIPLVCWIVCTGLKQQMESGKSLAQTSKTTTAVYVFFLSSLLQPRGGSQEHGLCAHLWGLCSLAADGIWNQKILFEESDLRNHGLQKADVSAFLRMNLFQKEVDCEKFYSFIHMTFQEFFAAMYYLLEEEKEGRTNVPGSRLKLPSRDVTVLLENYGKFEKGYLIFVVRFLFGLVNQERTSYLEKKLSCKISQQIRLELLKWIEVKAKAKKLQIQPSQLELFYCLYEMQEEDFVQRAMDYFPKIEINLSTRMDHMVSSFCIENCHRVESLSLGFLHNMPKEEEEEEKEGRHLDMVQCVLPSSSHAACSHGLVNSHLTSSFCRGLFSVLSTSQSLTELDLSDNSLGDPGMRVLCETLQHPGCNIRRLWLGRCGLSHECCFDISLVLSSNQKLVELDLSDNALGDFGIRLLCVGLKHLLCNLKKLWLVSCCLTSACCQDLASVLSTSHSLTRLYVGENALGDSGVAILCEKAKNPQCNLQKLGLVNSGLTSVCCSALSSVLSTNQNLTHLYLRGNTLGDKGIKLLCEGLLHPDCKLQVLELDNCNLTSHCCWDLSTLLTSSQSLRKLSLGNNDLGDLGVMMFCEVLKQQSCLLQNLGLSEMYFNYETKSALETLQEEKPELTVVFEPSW

| SMILES | IC50 |
| --- | --- |
| O=C(N[C@H]1CCC[C@H]2CC[C@@H]1N2c1nnn[nH]1)C1(c2ccc(C(F)(F)F)cc2O)CC1 [88D*, N-((1S,2S,6S)-9-(1H-tetrazol-5-yl)-9-azabicyclo[4.2.1]nonan-2-yl)-1-(2-hydroxy-4-(trifluoromethyl)phenyl)cyclopropane-1-carboxamide] | 1 to 10 µM |
| C[C@@H]1C[C@@H]2CC[C@H]([C@H](NC(=O)C3(c4ccc(C(F)(F)F)cc4)CC3)C1)N2c1nnn[nH]1 [104E*, N-((1R,2R,4S,6S)-4-methyl-9-(1H-tetrazol-5-yl)-9-azabicyclo[4.2.1]nonan-2-yl)-1-(4-(trifluoromethyl)phenyl)cyclopropane-1-carboxamide] | 10 to 50 µM |
| O=C(N[C@H]1CCC[C@@H]2CC[C@H]1N2c1nnn[nH]1)C1(c2ccc(C3CC3)cc2O)CC1 [93B*, N-((1R,2S,6R)-9-(1H-tetrazol-5-yl)-9-azabicyclo[4.2.1]nonan-2-yl)-1-(4-cyclopropyl-2-hydroxyphenyl)cyclopropane-1-carboxamide] | 1 to 10 µM |

Same assay, conditions: displacement of 3H-MCC950; read-out: SPA IC50

| SMILES | IC50 |
| --- | --- |
| Cc1ccc(C2(C(=O)N[C@@H]3C[C@H](C)[C@H]4CC[C@@H]3N4c3nnn[nH]3)CC2)cc1 [87C*, N-((1S,2R,4S,5R)-4-methy1-8-(1H-tetrazol-5-yl)-8-azabicyclo[3.2.1]octan-2-yl)-1-(p-tolyl)cyclopropane-1-carboxamide] | > 100 µM |
| C[C@H]1CCN(c2nnn[nH]2)C[C@@H](NC(=O)C2(c3cc(F)c(C(F)(F)F)cc3F)CC2)C1 (single isomer, unassigned) [7D*, 1-(2,5-difluoro-4-(trifluoromethyl)phenyl)-N-(5-methyl-1-(1H-tetrazol-5-yl)azepan-3-yl)cyclopropane-1-carboxamide] | 1 to 10 µM |
| C[C@H]1CCN(c2nnn[nH]2)C[C@H](NC(=O)C2(c3ccc(OC(F)(F)F)c(F)c3O)CC2)C1 (single isomer, unassigned) [28C*, 1-(3-fluoro-2-hydroxy-4-(trifluoromethoxy)phenyl)-N-(5-methyl-1-(1H-tetrazol-5-yl)azepan-3-yl)cyclopropane-1-carboxamide] | > 100 µM |
| C[C@H]1CCN(c2nnn[nH]2)C[C@H](NC(=O)C2(c3cc(F)c(C(F)(F)F)cc3F)CC2)C1 (single isomer, unassigned) [7C*, 1-(2,5-difluoro-4-(trifluoromethyl)phenyl)-N-(5-methyl-1-(1H-tetrazol-5-yl)azepan-3-yl)cyclopropane-1-carboxamide] | 50 to 100 µM |
| Cc1ccc(C2(C(=O)N[C@H]3C[C@H](C)CCN(c4nnn[nH]4)C3)CC2)c(O)c1F (single isomer, unassigned) [22B*, 1-(3-fluoro-2-hydroxy-4-methylphenyl)-N-(5-methyl-1-(1H-tetrazol-5-yl)azepan-3-yl)cyclopropane-1-carboxamide] | 1 to 10 µM |
| O=C(N[C@H]1CC[C@@H]2CC[C@H]1N2c1nnn[nH]1)C1(c2ccc(OC(F)F)cc2O)CC1 [77B*, N-((1R,2S,5R)-8-(1H-tetrazol-5-yl)-8-azabicyclo[3.2.1]octan-2-yl)-1-(4-(difluoromethoxy)-2-hydroxyphenyl)cyclopropane-1-carboxamide] | 10 to 50 µM |
| C[C@H]1C[C@H](NC(=O)C2(c3ccc(OC(F)F)cc3O)CC2)[C@@H]2CC[C@H]1N2c1nnn[nH]1 [43D*, N-((1S,2S,4S,5R)-4-methy1-8-(1H-tetrazol-5-yl)-8-azabicyclo[3.2.1]octan-2-yl)-1-(4-(difluoromethoxy)-2-hydroxyphenyl)cyclopropane-1-carboxamide] | 10 to 50 µM |
| Cc1ccc(C2(C(=O)N[C@H]3C[C@@H](C)CCN(c4nnn[nH]4)C3)CC2)c(O)c1F (single isomer, unassigned) [22D*, 1-(3-fluoro-2-hydroxy-4-methylphenyl)-N-(5-methyl-1-(1H-tetrazol-5-yl)azepan-3-yl)cyclopropane-1-carboxamide] | 1 to 10 µM |
| Cc1c(Cl)ccc(C2(C(=O)N[C@H]3C[C@@H](C)CCN(c4nnn[nH]4)C3)CC2)c1O (single isomer, unassigned) [21D*, 1-(4-chloro-2-hydroxy-3-methylphenyl)-N-(5-methyl-1-(1H-tetrazol-5-yl)azepan-3-yl)cyclopropane-1-carboxamide] | 10 to 50 µM |
| CC(C)c1ccc(C2(C(=O)N[C@H]3C[C@H](C)CCN(c4nnn[nH]4)C3)CC2)c(O)c1 (single isomer, unassigned) [27B*, 1-(2-hydroxy-4-isopropylphenyl)-N-(5-methyl-1-(1H-tetrazol-5-yl)azepan-3-yl)cyclopropane-1-carboxamide] | 1 to 10 µM |
| C[C@H]1CCN(c2nnn[nH]2)C[C@@H](NC(=O)C2(c3ccc(OC(F)(F)F)c(F)c3O)CC2)C1 (single isomer, unassigned) [28D*, 1-(3-fluoro-2-hydroxy-4-(trifluoromethoxy)phenyl)-N-(5-methyl-1-(1H-tetrazol-5-yl)azepan-3-yl)cyclopropane-1-carboxamide] | 1 to 10 µM |
| C[C@@H]1C[C@@H](NC(=O)C2(c3ccc(OC(F)F)cc3)CC2)[C@@H]2CC[C@H]1N2c1nnn[nH]1 (single isomer, unassigned) [35G*] | > 100 µM |
| C[C@H]1CCN(c2nnn[nH]2)C[C@H](NC(=O)C2(c3ccc(C4CC4)cc3)CC2)C1 (single isomer, unassigned) [2C*] | 10 to 50 µM |
| C[C@H]1C[C@H](NC(=O)C2(c3ccc(OC(F)F)cc3)CC2)[C@H]2CC[C@@H]1N2c1nnn[nH]1 (single isomer, unassigned) [35F*] | 50 to 100 µM |
| CC(C)c1ccc(C2(C(=O)N[C@@H]3C[C@@H](C)CCN(c4nnn[nH]4)C3)CC2)c(O)c1 (single isomer, unassigned) [27C*, 1-(2-hydroxy-4-isopropylphenyl)-N-(5-methyl-1-(1H-tetrazol-5-yl)azepan-3-yl)cyclopropane-1-carboxamide] | 50 to 100 µM |
| C[C@H]1C[C@H](NC(=O)C2(c3ccc(C(F)(F)F)cc3)CC2)[C@@H]2CC[C@H]1N2c1nnn[nH]1 [79D*, N-((1S,2S,4S,5R)-4-methyl-8-(1H-tetrazol-5-yl)-8-azabicyclo[3.2.1]octan-2-yl)-1-(4-(trifluoromethyl)phenyl)cyclopropane-1-carboxamide] | 10 to 50 µM |
| C[C@H]1CCN(c2nnn[nH]2)C[C@@H](NC(=O)C2(c3ccc(C(F)(F)F)c(OC(F)F)c3)CC2)C1 (single isomer, unassigned) [54D*] | 10 to 50 µM |
| C[C@@H]1CC[C@H](NC(=O)C2(c3ccc(Cl)cc3)CC2)CN(c2nnn[nH]2)C1 (single isomer, unassigned) [36D*, 1-(4-chlorophenyl)-N-(6-methyl-1-(1H-tetrazol-5-yl)azepan-3-yl)cyclopropane-1-carboxamide] | > 100 µM |
| Cc1cc(C2(C(=O)N[C@H]3C[C@H](C)CCN(c4nnn[nH]4)C3)CC2)ccc1C(F)(F)F (single isomer, unassigned) [6B*, N-(5-methyl-1-(1H-tetrazol-5-yl)azepan-3-yl)-1-(3-methyl-4-(trifluoromethyl)phenyl)cyclopropane-1-carboxamide] | 50 to 100 µM |

Other lines, results leading:

| IC50 | SMILES |
| --- | --- |
| 10 to 50 µM | C[C@H]1CCN(c2nnn[nH]2)C[C@@H](NC(=O)C2(c3ccc(C(F)(F)F)cc3)CC2)C1 (single isomer, unassigned) [61D*] |
| 1 to 10 µM | C[C@@H]1CCN(c2nnn[nH]2)CC(NC(=O)C2(c3ccc(OC(F)F)cc3)CC2)C1 (stereo in doubt) [58B*, 1-(4-(difluoromethoxy)phenyl)-N-((3S,5R)-5-methyl-1-(1H-tetrazol-5-yl)azepan-3-yl)cyclopropane-1-carboxamide] |
| 10 to 50 µM | C[C@H]1CCN(c2nnn[nH]2)C[C@@H](NC(=O)C2(c3ccc(Cl)cc3F)CC2)C1 (single isomer, unassigned) [56D*] |
| > 100 µM | C[C@@H]1CC[C@@H](NC(=O)C2(c3ccc(Cl)cc3)CC2)CN1c1nnn[nH]1 [Compound 41C, 1-(4-chlorophenyl)-N-[(3R,6R)-6-methyl-1-(1H-tetrazol-5-yl)-3-piperidyl]cyclopropanecarboxamide] |
| 10 to 50 µM | Cc1ccc(C2(C(=O)N[C@H]3C[C@@H](C)CCN(c4nnn[nH]4)C3)CC2)cc1 (single isomer, unassigned) [71D*] |
| 1 to 10 µM | C[C@@H]1CCN(c2nnn[nH]2)C[C@@H](NC(=O)C2(c3c(F)cc(Cl)cc3F)CC2)C1 (single isomer, unassigned) [72B*] |
| < 1 µM | C[C@H]1CC[C@@H](NC(=O)C2(c3ccc(C4CC4)cc3O)CC2)CN(c2nnn[nH]2)C1 (single isomer, unassigned) [91A*] |
| 10 to 50 µM | C[C@H]1CCN(c2nnn[nH]2)C[C@H](NC(=O)C2(c3ccc(C(F)(F)F)cc3O)CC2)C1 (single isomer, unassigned) [63C*] |
| 10 to 50 µM | O=C(N[C@H]1CN(c2nnn[nH]2)CC[C@@H]1F)C1(c2ccc(Cl)cc2)CC1 [Compound 50C, 1-(4-chlorophenyl)-N-[(3S,4S)-4-fluoro-1-(1H-tetrazol-5-yl)-3-piperidyl]cyclopropanecarboxamide] |
| 1 to 10 µM | C[C@H]1CCN(c2nnn[nH]2)C[C@H](NC(=O)C2(c3ccc(Cl)cc3O)CC2)C1 (single isomer, unassigned) [60C*] |
| > 100 µM | O=C(N[C@@H]1C[C@H](F)CN(c2nnn[nH]2)C1)C1(c2ccc(Cl)cc2)CC1 [Compound 44A, 1-(4-chlorophenyl)-N-[(3R,5S)-5-fluoro-1-(1H-tetrazol-5-yl)-3-piperidyl]cyclopropanecarboxamide] |
| 1 to 10 µM | C[C@H]1CCN(c2nnn[nH]2)C[C@@H](NC(=O)C2(c3ccc(OC(F)(F)F)cc3O)CC2)C1 (single isomer, unassigned) [62D*] |
| > 100 µM | C[C@H]1CCN(c2nnn[nH]2)C[C@H](NC(=O)C2(c3ccc(OC(F)F)cc3)CC2)C1 (single isomer, unassigned) [58C*] |
| 10 to 50 µM | C[C@@H]1CC[C@@H](NC(=O)C2(c3ccc(Cl)cc3O)CC2)CN(c2nnn[nH]2)C1 (single isomer, unassigned) [90C*] |
| 1 to 10 µM | Cc1ccc(C2(C(=O)N[C@H]3C[C@@H](C)CCN(c4nnn[nH]4)C3)CC2)c(O)c1F (single isomer, unassigned) [74D*] |

Same assay, conditions: read-out: SPA IC50

| IC50 | SMILES |
| --- | --- |
| > 500 µM | Cn1nnnc1-c1cccc(NC(=O)C2(c3ccc(Cl)cc3)CC2)c1 [Comparative Example E1, 1-(4-chlorophenyl)-N-(3-(1-methyl-1H-tetrazol-5-yl)phenyl)cyclopropane-1-carboxamide, reference compound] |
